Results published in US7323118B2, “Composition of hypochlorous acid and its applications” (Aquilabs S.A., priority 2001, dated 2008).

Legend:
Assay in all cases: Cultures and tests of inhibition (culture agar, Petri box)
Assay type in all cases: cell-based
Conditions in all cases: added to the culture agar; inhibition haloes in the Petri box
staphylococcus aureus = system: staphylococcus aureus
E. Coli = system: E. Coli
pseudomona = system: pseudomona

Measured: inhibition of growth

OCl [Hypochlorous acid]
full inhibition: all assays above
